From patent publication US11040958B2, “Triazole antimicrobial derivative, pharmaceutical composition and use thereof” (priority 2017, dated 2021)

Columns and labels:
[1] = Pharmacokinetics after single gastrointestinal (gavage) administration in rats (plasma voriconazole); type: in vivo; conditions: SD rats, 2.5 mg/kg (calculated as voriconazole)
Procedure: Dosing volume for administration: 10 ml/kg
Solvent medium for administration: except for the positive voriconazole group using CMC-Na, the other groups using normal saline
Route of administration: gavage

[2] = In vitro metabolic stability in rat intestinal S9; type: in vitro ADME; conditions: 37°C, S9 1 mg/mL, compound 10 μM, NADPH regeneration system
Procedure: (§1) The two reaction systems were set up three samples in parallel, while each sample was taken in an amount of 100 μL at 1 min, 2 mins, 5 mins, 15 mins, and 30 mins after the reaction, added to the centrifuge tube containing 400 μL of 0° C. pre-cooled internal standard working fluid and terminated the reaction. The sample was mixed by vortex for 1 min, centrifuged at 10,000×g for 10 mins in a 4° C. pre-cooled high-speed centrifuge. The supernatant was taken for HPLC detection. […] Concentration of mother liquor of compounds: 1 mM […] [table]

[3] = In vitro metabolic stability in human plasma; type: in vitro ADME; conditions: 37°C, compound 10 μM
Procedure: The two reaction systems were set up three samples in parallel, while each sample was taken in an amount of 100 μL at 1 min, 2 mins, 5 mins, 15 mins, and 30 mins after the reaction, added to the centrifuge tube containing 400 μL of 0° C. pre-cooled internal standard working fluid and terminated the reaction. The sample was mixed by vortex for 1 min, centrifuged at 10,000×g for 10 mins in a 4° C. pre-cooled high-speed centrifuge. The supernatant was taken for HPLC detection.

[4] = system: Candida albicans ATCC10231; assay: Systemic fungal infection in mice, administration by gavage, survival; type: in vivo; conditions: ICR mice, 5 mg/kg (calculated as voriconazole) once daily for 5 days
Procedure: (§2) ICR mice, weighing 18-22 g, male, provided by the Hubei Experimental Animal Center.
(§3) The standard strain Candida albicans was purchased from the American Type Culture Collection, and the strain number was ATCC10231.
Before the experiment, a small amount of Candida albicans was picked from the SDA medium preserved at 4° C. by inoculation circle, inoculated into 1 ml of YPD culture medium, and cultured at 30° C. while being shaken at 200 rpm for 16 hours to make the fungus in the late stage of exponential growth. Blood cell counting plate was used to count, and the concentration of the broth was adjusted to 1*10^3−5*10^3 CFU/ml with RPMI1640 medium. The Candida albicans monoclone on the SDA plate was picked, inoculated into 1 ml YPD medium, cultured at 35° C., 200 rpm for 16 hours to the late exponential growth phase, 1% of which was then inoculated in fresh medium for 6 hours, centrifuged at 1000×g for 5 mins, washed three times with saline until the supernatant was colorless, while hemocytometer was used to count. The cell concentration was adjusted to 5*10^6/ml. The tail vein injection of 0.1 ml/10 g was carried out to cause a systemic fungal infection in mice. The mice were randomized into groups of 10 each. Voriconazole used was in the form of a suspension prepared with CMC-Na (Shanghai Panhong Chemical Technology Co., Ltd.), while other tested drugs were dissolved in saline and sonicated until clarified for administration. After establishing a systemic fungal infection model in mice for 2 hours, each group was administered by gavage with 5 mg/kg (calculated as voriconazole) drug, with the volume for administration of 0.1 ml/10 g. The mice in the model group were administered 0.1 ml/10 g of 0.9% sodium chloride solution, once daily, for 5 consecutive days. The death situation of the mice was inspected and the survival time was recorded. After a total of 7 days of observation, all dead mice were treated with fire using ethanol.

[5] = Solubility test in deionized water (HPLC, external calibration); type: physicochemical; conditions: deionized water, 25±2°C
Procedure: Experimental condition: 25±2° C.
Dissolving medium: deionized water
Experimental method: 1 mg voriconazole and appropriate amount of each compound were weighed, placed in 1 ml deionized water separately, shaken vigorously for 30 s every 5 mins for 30 mins.

[6] = In vitro metabolic stability in human intestinal S9; type: in vitro ADME; conditions: 37°C, S9 1 mg/mL, compound 10 μM, NADPH regeneration system
Procedure: as §1

[7] = system: Candida albicans ATCC10231; assay: Systemic fungal infection in mice, intravenous administration, survival; type: in vivo; conditions: ICR mice, tail vein, 5 mg/kg (calculated as voriconazole) once daily for 5 days
Procedure: as §2, §3
Before the experiment, a small amount of Candida albicans was picked from the SDA medium preserved at 4° C. by inoculation circle, and inoculated into 1 ml YPD (Yeast Extract Peptone Dextrose Medium, the same below) culture medium, under shake cultivation at 30° C., 200 rpm, activated for 16 hours to make the fungus in the late stage of the exponential growth phase. Blood cell counting plate was used to count. The concentration of the broth was adjusted to 1*10^3-5*10^3 CFU/ml with RPMI1640 (Roswell Park Memorial Institute 1640, the same below) culture medium. The Candida albicans monoclone on the SDA plate was picked and inoculated into 1 ml YPD medium, cultured at 35° C., 200 rpm for 16 hours to the late exponential growth phase, 1% of which was then inoculated in fresh medium for 6 hours, centrifuged at 1000×g for 5 mins, washed three times with saline until the supernatant was colorless, while hemocytometer was used to count. The cell concentration was adjusted to 5*10^6/ml. The tail vein injection of 0.1 ml/10 g was carried out to cause a systemic fungal infection in mice. The mice were randomized into groups of 10 each. Since voriconazole was insoluble in vehicle (physiological saline), the mice of the voriconazole group in the test were injected a commercially available voriconazole (Pfizer, product lot number Z467001), that is, sulfobutyl ether-β-cyclodextrin used as a solubilizer, while other groups used physiological saline as a solvent. After establishing a systemic fungal infection model in mice for 2 hours, each administration group was administered with 5 mg/kg (calculated as voriconazole) drug in the tail vein, with the volume for administration of 0.1 ml/10 g. The mice in the model group were administered 0.1 ml/10 g of 0.9% sodium chloride solution, once daily, for 5 consecutive days. The death situation of the mice was inspected and the survival time was recorded. After a total of 7 days of observation, all dead mice were treated with fire using ethanol.

[8] = In vitro metabolic stability in rat plasma; type: in vitro ADME; conditions: 37°C, compound 10 μM
Procedure: The two reaction systems were set up three samples in parallel, while each sample was taken in an amount of 100 μL at 1 min, 2 mins, 5 mins, 15 mins, and 30 mins after the reaction, added to the centrifuge tube containing 400 μL of 0° C. pre-cooled internal standard working fluid and terminated the reaction. The sample was mixed by vortex for 1 min, centrifuged at 10,000×g for 10 mins in a 4° C. pre-cooled high-speed centrifuge. The supernatant was taken for HPLC detection. […] Concentration of mother liquor of compounds: 1 mM […]

[9] = Pharmacokinetics after single intravenous administration in rats (plasma voriconazole); conditions: rat, in vivo, 2.5 mg/kg
Procedure: Dosage for administration: 2.5 mg/kg (calculated as voriconazole)
Dosing volume for administration: 2.5 ml/kg
Drug concentration: 1 mg/mL (calculated as voriconazole)
Route of administration: tail vein injection Experimental animals: SD rats, SPF grade, weighing 180-220 g, half male and half female; the SD rats were randomized into groups of 6 animals each, three males and three females in each group. Experimental method: Blood samples were collected at different time points after tail vein administration, and the plasma concentrations of voriconazole were measured.

| SMILES | AUClast [1] | Cmax [1] | T1/2 [1] | Rat intestinal S9 T1/2 [2] | Human plasma T1/2 [3] | survival rate of mice, day 1 [4] | survival rate of mice, day 2 [4] | survival rate of mice, day 3 [4] | survival rate of mice, day 4 [4] | survival rate of mice, day 5 [4] | survival rate of mice, day 6 [4] | survival rate of mice, day 7 [4] | Solubility [5] | Human intestinal S9 T1/2 [6] | survival rate of mice, day 1 [7] | survival rate of mice, day 2 [7] | survival rate of mice, day 3 [7] | survival rate of mice, day 4 [7] | survival rate of mice, day 5 [7] | T1/2 [9] | other results |
| --- | --- | --- | --- | --- | --- | --- | --- | --- | --- | --- | --- | --- | --- | --- | --- | --- | --- | --- | --- | --- | --- |
| CC(OC(=O)N(C)c1ncccc1COC(=O)CN)[n+]1cnn(C[C@](O)(c2ccc(F)cc2F)[C@@H](C)c2ncncc2F)c1.[Cl-] (stereo partly drawn) [QR16001] | 8562 ± 1125 ng·h/mL | 789 ± 362 ng/mL | 193 ± 76.8 min | 10.15 ± 2.65 min | 1.56 ± 0.26 min | 100% | 100% | 100% | 100% | 90% | 80% | 80% | >50 mg/mL | 10.09 ± 1.75 min | 100% | 100% | 100% | 100% | 100% | 128 ± 58.8 min | survival rate of mice, day 6 [7]: 100%; Rat plasma T1/2 [8]: 1.23 ± 0.45 min; AUClast [9]: 10515 ± 1985 ng·h/mL |
| CC(OC(=O)N(C)c1ncccc1COC(=O)C(N)CO)[n+]1cnn(CC(O)(c2ccc(F)cc2F)C(C)c2ncncc2F)c1.Cl.Cl.[Cl-] (stereo not drawn) [QR16015] | 8144 ± 1468 ng·h/mL | 996 ± 365 ng/mL | 167 ± 73.8 min | 15.95 ± 4.96 min | 2.05 ± 0.26 min | 100% | 100% | 100% | 100% | 100% | 80% | 80% | >50 mg/mL | 12.72 ± 1.72 min | 100% | 100% | 100% | 100% | 100% | 171 ± 107 min | survival rate of mice, day 6 [7]: 90%; Rat plasma T1/2 [8]: 1.58 ± 0.95 min; AUClast [9]: 10526 ± 2695 ng·h/mL |
| CC(O)C(N)C(=O)OCc1cccnc1N(C)C(=O)OC(C)[n+]1cnn(CC(O)(c2ccc(F)cc2F)C(C)c2ncncc2F)c1.Cl.Cl.[Cl-] (stereo not drawn) [QR16016] | 8332 ± 3254 ng·h/mL | 885 ± 344 ng/mL | 134 ± 75 min | 19.62 ± 3.69 min | 2.12 ± 1.07 min | 100% | 100% | 90% | 90% | 90% | 90% | 80% | >50 mg/mL | 15.72 ± 0.98 min | 100% | 100% | 100% | 100% | 100% | 159 ± 52.8 min | survival rate of mice, day 6 [7]: 90%; Rat plasma T1/2 [8]: 1.95 ± 0.87 min; AUClast [9]: 10477 ± 1854 ng·h/mL |
| CC(OC(=O)N(C)c1ncccc1CN)[n+]1cnn(C[C@](O)(c2ccc(F)cc2F)[C@@H](C)c2ncncc2F)c1 (stereo partly drawn) [QR16022] |  |  |  |  |  |  |  |  |  |  |  |  |  |  |  |  |  |  |  | similar | half-life at 10 µM ([2]; rat, intestinal S9, pH 7.4, read-out: Rat intestinal S9 T1/2): 56 ± 10.3 min; half-life at 10 µM ([3]; human, plasma, read-out: Human plasma T1/2): 26 ± 2.39 min; solubility at 30 min ([5]; 25 °C, thermodynamic from solid): > 50 mg/mL; half-life at 10 µM ([6]; human, intestinal S9, read-out: Human intestinal S9 T1/2): 43.2 ± 1.03 min; half-life at 10 µM ([8]; rat, plasma, read-out: Rat plasma T1/2): 29.5 ± 7.85 min |
